Assay results published in the NIST ThermoML archive (doi:10.1021/je3011979).

Test: xn = mol fraction of the nth substance listed
Conditions: 101 kPa, Liquid, Vibrating tube method

CCCOC(C)=O [propyl ethanoate] + CCCCCCCC
Conditions	mass density [kg/m3]
291.15 K, x1 = 0.8181	841.9
291.15 K, x1 = 0.8638	853.1
291.15 K, x1 = 0.9109	865.1
291.15 K, x1 = 0.9798	883.9
291.15 K, x1 = 1	889.6
298.15 K, x1 = 0.0149	700.3
298.15 K, x1 = 0.0603	705.4
298.15 K, x1 = 0.1039	710.8
298.15 K, x1 = 0.2154	725.3
298.15 K, x1 = 0.2536	730.6
298.15 K, x1 = 0.3283	741.5
298.15 K, x1 = 0.3895	751.1
298.15 K, x1 = 0.4733	765
298.15 K, x1 = 0.5382	776.6
298.15 K, x1 = 0.5953	787.3
298.15 K, x1 = 0.6543	799
298.15 K, x1 = 0.7043	809.4
298.15 K, x1 = 0.7628	822.2
298.15 K, x1 = 0.8145	834.2
298.15 K, x1 = 0.862	845.6
298.15 K, x1 = 0.9221	860.9
298.15 K, x1 = 0.9349	864.3
298.15 K, x1 = 1	882.5
318.15 K, x1 = 0.044	687.1
318.15 K, x1 = 0.0919	692.5
318.15 K, x1 = 0.1675	701.7
318.15 K, x1 = 0.2438	711.7
318.15 K, x1 = 0.3148	721.6
318.15 K, x1 = 0.3866	732.3
318.15 K, x1 = 0.4471	741.8
318.15 K, x1 = 0.5188	753.7
318.15 K, x1 = 0.5695	762.8
318.15 K, x1 = 0.6293	773.9
318.15 K, x1 = 0.6793	783.8
318.15 K, x1 = 0.7422	796.8
318.15 K, x1 = 0.7792	804.8
318.15 K, x1 = 0.8435	819.5
318.15 K, x1 = 0.8743	826.9
318.15 K, x1 = 0.9284	840.5
318.15 K, x1 = 1	859.8
328.15 K, x1 = 0.0249	676.7
328.15 K, x1 = 0.1032	685.4
328.15 K, x1 = 0.1801	694.6
328.15 K, x1 = 0.2554	704.4
328.15 K, x1 = 0.3244	713.9
328.15 K, x1 = 0.4	725
328.15 K, x1 = 0.4761	737
328.15 K, x1 = 0.5341	746.7
328.15 K, x1 = 0.5975	757.9
328.15 K, x1 = 0.6603	769.7
328.15 K, x1 = 0.7147	780.7
328.15 K, x1 = 0.7686	791.9
328.15 K, x1 = 0.8149	802.1
328.15 K, x1 = 0.8651	813.8
328.15 K, x1 = 0.9233	828
328.15 K, x1 = 0.9404	832.4
328.15 K, x1 = 1	848.3
